# Patent publication US11059828B2, “Disubstituted octahydropyrrolo[3,4-C]pyrroles as orexin receptor modulators” (Janssen Pharmaceutica NV, priority 2009, dated 2021)
# Molecular target: human orexin-2 receptor (Homo sapiens (Human), UniProt O43614)
# Assay: Human Orexin 2 Receptor Radioligand Binding Studies ([3H]-EMPA competition)
# Details: HEK293 cells stably expressing human orexin-2 receptor; [3H]-EMPA 5 nM; apparent Ki; read-out: OR 2 Ki
# human orexin-2 receptor, sequence (O43614 whole entry): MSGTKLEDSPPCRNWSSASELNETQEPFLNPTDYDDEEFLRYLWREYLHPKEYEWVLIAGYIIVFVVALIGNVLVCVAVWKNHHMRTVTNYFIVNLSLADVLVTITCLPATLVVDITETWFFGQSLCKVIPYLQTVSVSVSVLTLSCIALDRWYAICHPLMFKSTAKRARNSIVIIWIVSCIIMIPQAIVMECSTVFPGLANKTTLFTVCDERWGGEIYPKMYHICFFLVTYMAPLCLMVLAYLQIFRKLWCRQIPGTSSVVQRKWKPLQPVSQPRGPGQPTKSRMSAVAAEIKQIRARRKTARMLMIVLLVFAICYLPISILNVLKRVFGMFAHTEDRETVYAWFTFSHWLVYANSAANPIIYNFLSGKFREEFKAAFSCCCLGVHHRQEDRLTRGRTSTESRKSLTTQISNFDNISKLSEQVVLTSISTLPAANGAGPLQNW
structure (smiles),measurement,value
"O=C(c1cccc(F)c1-n1nccn1)N1CC2CN(c3cnc4cc(F)c(F)cc4n3)CC2C1 (stereo not shown) [Example 244, (5-(6,7-Difluoroquinoxalin-2-yl)hexahydropyrrolo[3,4-c]pyrrol-2(1H)-yl)(3-fluoro-2-(2H-1,2,3-triazol-2-yl)phenyl)methanone]",Ki,0.018 µM
